This is an account of results in the METLIN SMRT retention time set (Domingo-Almenara et al. 2019).

Molecules are shown by their SMILES.

The data set is described as follows: gradient 5% acetonitrile 3 min, to 50% in 2 min, to 85% in 15 min, held 3 min, 100 µL/min. Particulars: column: Zorbax Extend-C18 2.1 x 50 mm; eluents: water / acetonitrile, 0.1% formic acid. The method, boiled down: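 A Zorbax Extend-C18 column (2.1 × 50 mm, 1.8 μm) run at 100 μL/min with water and acetonitrile, both containing 0.1% formic acid, separated mixtures of ~100 pure standards. The HPLC was coupled to a quadrupole time-of-flight mass spectrometer operated in positive and negative ionization mode, with dead and dwell volumes of 40 μL and 900 μL. Each retention time was taken from a computationally picked adduct peak that was then manually inspected.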
As to `Cc1cccc(C)c1Nc1c(-c2ccccc2F)nc2cccc(C)n12`, the RP-LC retention time was 757 s.
As for `Cc1cc(C)c(S(=O)(=O)Nc2ccc(Cn3cncn3)cc2)cc1C`, the figure is 762 s; as for `OCCNCCNCc1ccc(-c2ccccc2F)o1`, 563 s.
As for `COC[C@@H]1CN(S(=O)(=O)C(C)C)C[C@H]1c1ccccn1`, the figure is 619 s.
As to `Cc1ccc(C)c(Cn2nc3c(S(=O)(=O)N4CCCC4)cccn3c2=O)c1`, the RP-LC retention time was determined as 914 s.
Compound `CCCn1cc(S(=O)(=O)Nc2ccc(F)c(F)c2)c2cccnc21` returned an RP-LC retention time of 898 s.
The value for `CC(C)C(=O)N1CCc2cc(C(=O)N3CCCC3)ccc21` was 720 s; that for `Cc1ccc(=O)n(-c2ccccc2)c1` was 739 s.
The compound `CCOCCCNC(=O)c1ncoc1-c1ccccc1C(=O)N1CCCC1` registered an RP-LC retention time of 686 s.
Take `O=C(CNC(=O)c1ccncc1)Nc1nc2ccccc2[nH]1`: the RP-LC retention time was 554 s.
`CCOc1ccc(NC(=O)Cn2nc3n(c2=O)CCCCC3)cc1`: the RP-LC retention time turned out to be 690 s.
As for `COc1ccccc1N1CCN(c2nc3c(c(Nc4ccccc4)n2)C(=O)CCC3)CC1`, the figure is 1270 s; as for `CN(C)C(CNC(=O)c1cc(-c2ccc(Cl)cc2)on1)c1cccs1` (stereo unspecified), 728 s; as for `COC1CCC12CCN(C(=O)c1ccc(Cc3c(C)noc3C)o1)CC2` (stereo unspecified), 800 s.
As for `Cc1ccc(N2N=C(C(=O)NCCN3CCOCC3)S(=O)(=O)c3cc(F)ccc32)cc1`, the figure is 654 s; as for `COc1cccc(NC(=O)C2CCN(S(=O)(=O)c3cn(C)cn3)CC2)c1`, 656 s; as for `COc1ccc(CNC(=O)N2C[C@@H]3C[C@H]2C[C@@H]3NS(=O)(=O)c2ccccc2)cc1`, 764 s.
The value for `CN(C)C(=O)c1csc(S(=O)(=O)N2CCC(C(=O)NC3CCCC3)CC2)c1` was 696 s.
`COc1ccc(CNC(=O)C2CCCN(c3nccnc3Sc3ccccc3)C2)cc1OC` (stereo unspecified) gave an RP-LC retention time of 1120 s.
As for `Cc1nc(OCC(=O)NCc2cccc(Cl)c2)c2c(C)c(C)oc2n1`, the figure is 929 s; as for `CCc1nc(-c2csc(S(=O)(=O)N3CCC(C(=O)Nc4ccc(C)cn4)CC3)c2)no1`, 799 s.
Compound `CCc1cc(N2CCN(C(=O)c3ccccc3)CC2)nc2nnc(C)n12` came in with an RP-LC retention time of 604 s.
As for `Cn1cc(SCC(=O)NCc2ccco2)c2ccccc21`, the figure is 778 s; as for `Cc1ccc(-c2nc(-c3cccc(-c4ccnn4C)c3)no2)s1`, 1160 s.
The value for `O=C(Nc1nc(-c2ccc3c(c2)OCCO3)cs1)c1cc(Cl)sc1Cl` was 1120 s; that for `CCN1C(=O)c2cccnc2Sc2cc(CNC(=O)c3cc(OC)cc(OC)c3)ccc21` was 777 s; that for `COc1cccc(S(=O)(=O)N2CCC(c3noc(-c4ccccc4)n3)CC2)c1` was 1120 s.
As for `O=C(Nc1ccc2c(c1)CN(S(=O)(=O)Cc1ccccc1)CCO2)C1CC1`, the figure is 844 s; as for `COc1ccc(OC)c2sc(NCc3ccccn3)nc12`, 585 s; as for `CCn1ccc(C(=O)NC)n1`, 566 s.
The compound `CNC(=O)N1CC(c2nc(-c3ccccc3)no2)C2(CCOCC2)C1` (stereo unspecified) gave an RP-LC retention time of 679 s.
As for `N#Cc1ccc(NC(=O)C2CCCN(S(=O)(=O)c3cc(-c4noc(C5CCC5)n4)cs3)C2)cc1` (stereo unspecified), the figure is 1120 s; as for `CN(c1ccccc1CNc1nc(Nc2ccc3c(c2)CC(=O)N3)ncc1C(F)(F)F)S(C)(=O)=O`, 713 s.
`Cn1ncc2c3ccccc3n(CCCC(=O)NCCc3cccs3)c2c1=O` gave an RP-LC retention time of 834 s.
`CCOC(=O)c1c2c3c(cccc3n(C)c1=O)C(=O)c1ccccc1-2` came in with an RP-LC retention time of 907 s.
Take `CCn1cccc1-c1nc(C)c(C(=O)Nc2ccc(C)c(C)c2)s1`: the RP-LC retention time was determined as 1270 s.
As for `O=C(NCc1ccccc1C(F)(F)F)c1cnc(-c2ccccc2)nc1-c1ccncc1`, the RP-LC retention time stood at 924 s.
The value for `COCCNC(=O)Cn1c(=O)c2cccn2c2ccccc21` was 655 s; that for `COc1cc(NC(C)=O)c2ncccc2c1NC(C)=O` was 631 s; that for `COc1cccc(-c2nnc(Cc3nc(-c4ccc5c(c4)OCO5)no3)o2)c1` was 977 s.
As for `CC(C)(C)NC(=O)NCCC1CCN(S(=O)(=O)c2ccccc2)CC1`, the figure is 822 s; as for `CC(=O)Nc1ccc(OCc2cc(C(=O)NC3CCCCC3)no2)cc1`, 781 s.
For the compound `CCn1c(CCC(=O)NCc2ccccc2OC)nc2ccc(C)cc2c1=O`, the RP-LC retention time turned out to be 817 s.
The value for `O=C(NCc1ccco1)C1CCN(c2ccc(Sc3ccccc3)nn2)CC1` was 1060 s; that for `O=S(=O)(c1ccc(F)cc1F)N1CCc2nc(-c3ccc(F)cc3)ncc2C1` was 1110 s; that for `Cc1ccc(CNC(=O)N2CCC(c3cc(N)on3)CC2)cc1` was 692 s.
The value for `CCOC(=O)Cn1cc(-c2nc(-c3ccc(Br)cc3)no2)ccc1=O` was 1050 s.
The value for `CC(=O)N(C1CC1)C1CCOC2(CCN(C(=O)c3sc(C)nc3C)CC2)C1` (stereo unspecified) was 643 s; that for `Cc1cc(=O)n(CC(=O)Nc2ccccc2Cl)c(N2CCCC2)n1` was 661 s; that for `Cc1cccc(CN2CC(=O)N(c3ccccc3)[C@@H]3CS(=O)(=O)C[C@@H]32)c1` was 800 s.
In turn, `Cc1ccc2c(c1)C(=O)NC1(CCN(C(=O)c3ccc4c(c3)OCO4)CC1)N2C` displayed an RP-LC retention time of 721 s.
As for `COc1ccc(Cl)c(Nc2nc3ccccc3nc2NS(=O)(=O)c2cccc(NC(=O)C(C)(C)N)c2)c1`, the figure is 879 s; as for `COC(=O)C1=CN(c2ccccc2C)c2ccc(F)cc2S1(=O)=O`, 879 s.
The value for `Cc1ccnc(N2CCC(C(=O)NCCCN3CCCCC3)CC2)n1` was 559 s.
The value for `Cc1ccc(Cl)cc1NC(=O)N1CCC(n2cnnc2C2CC2)C1` (stereo unspecified) was 653 s.
In the case of `COCCNC(=O)Cc1c(C)n(C)c2nc(-c3ccccc3)nn2c1=O`, the RP-LC retention time stood at 633 s.
The value for `CCOc1cc(=O)n2c(c1C(=O)Nc1ccc3c(c1)CCC3)CCCC2` was 815 s.
The value for `Cc1cccc(N2CCn3c2nc2c3c(=O)n(CC(=O)O)c(=O)n2C)c1` was 689 s.
With `NS(=O)(=O)c1ccc(Nc2ccccc2)c([N+](=O)[O-])c1`, the RP-LC retention time amounted to 856 s.
For `CC(C(=O)NCCc1c[nH]c2ccccc12)n1c2ccccc2c2cnn(C)c(=O)c21` (stereo unspecified), the RP-LC retention time turned out to be 829 s.
As for `Cc1nnsc1C(=O)NCC1(O)CCCC1`, the figure is 602 s.
Turning to `O=S(=O)(Nc1ccncc1)c1cccc(C(F)(F)F)c1`, the RP-LC retention time was found to be 591 s.
As for `CCOc1ccc(N2C=C(C(=O)OC)S(=O)(=O)c3ccc(F)cc32)cc1`, the figure is 856 s.
`CCOc1ccc(CNC(=S)Nc2ccc3nc(N4CCN(C)CC4)cc(C)c3c2)cc1` yielded an RP-LC retention time of 614 s.
The value for `CCc1noc(NC(C)=O)c1-c1ccc(OC)c(S(=O)(=O)Nc2ccc(OC)c(OC)c2)c1` was 688 s; that for `O=C(NCC1(CO)CC1)c1ccc2nsnc2c1` was 602 s; that for `COc1ccc(S(=O)(=O)Cc2nc(-c3ccc(Cl)cc3)no2)cc1` was 1030 s.
As for `CNC(=O)c1ccc(N2C(=S)N(c3cnc(C#N)c(C(F)(F)F)c3)C(=O)C23CCC3)cc1F`, the figure is 993 s.
The value for `Cc1ccc(S(=O)(=O)N2CCCC2c2nc(-c3cccc(F)c3)no2)cc1Cl` (stereo unspecified) was 1230 s; that for `CCOC(=O)c1ccc(OC(=O)CCCCCN=C(N)N)cc1` was 750 s.
Turning to `CCOc1nc2ccccc2nc1N1CCCC(C(=O)Nc2cccc(Cl)c2)C1` (stereo unspecified), the RP-LC retention time was found to be 1290 s.
As to `Cc1ccsc1C(=O)N1CC(Oc2ccc(-c3nc(-c4ccccc4)no3)cc2)C1`, the RP-LC retention time was found to be 1250 s.
On to `COc1ccc(CCNC(=O)CSc2cc(N3CCC(C(=O)NC4CC4)CC3)ncn2)cc1OC`, for which the RP-LC retention time stood at 624 s.
The value for `O=C(Nc1ccc(-n2cnnn2)cc1)C1CN(c2nc3ccccc3s2)C1` was 659 s; that for `Cc1ccc(-n2nc(C(=O)N3CCN(c4ccccn4)CC3)c3ncn(C)c(=O)c32)cc1` was 608 s.
As for `CCCNC(=O)N1c2ccccc2NC2=C(C(=O)CC(c3ccco3)C2)C1c1ccc(OC)cc1` (stereo unspecified), the figure is 805 s; as for `CCOC(=O)C1CCC(CNC(=O)N2CCCn3nc(-c4cccnc4)cc3C2)CC1` (stereo unspecified), 629 s; as for `Cc1nc2c(ccc3nc(NC(=O)c4ccc(Cl)s4)sc32)s1`, 986 s.
As for `CN(CC1CCOCC1)S(=O)(=O)c1ccccc1C(F)(F)F`, the figure is 861 s; as for `Cc1cccc2nnc(N3CCN(C(=O)c4cccc(Cl)c4)CC3)n12`, 584 s; as for `CCC1CCCCN1C(=O)c1cnc2nc(C)ccc2c1Nc1ccc2c(c1)OCO2` (stereo unspecified), 623 s.
